Experimental data published in patent US6949542B2, “Dihydro-benzo[b][1,4]diazepin-2-one derivatives” (Hoffman-La Roche Inc., priority 2002, dated 2005).

Point of comparison: CCOc1cc2c(cc1C(F)(F)F)NC(=O)CC(c1cccc(-c3ccnc(CC(C)C)c3)c1)=N2 [Example 280, 4-[3-(2-Isobutyl-pyridin-4-yl)-phenyl]-7-ethoxy-8-trifluoromethyl-1,3-dihydro-benzo[b][1,4]diazepin-2-one], melting point 203 °C. Against it:
- O=C1CC(c2cccc(-c3ccnc(C(F)(F)F)c3)c2)=Nc2cc(Cl)c(Cl)cc2N1 [Example 267, 7,8-Dichloro-4-[3-(2-trifluoromethyl-pyridin-4-yl)-phenyl]-1,3-dihydro-benzo[b][1,4]diazepin-2-one] — higher, 226 °C
- O=C1CC(c2cccc(-c3ccnc(C(F)(F)F)c3)c2)=Nc2cc(OCC(F)(F)F)c(C(F)(F)F)cc2N1 [Example 268, 7-(2,2,2-Trifluoro-ethoxy)-8-trifluoromethyl-4-[3-(2-trifluoromethyl-pyridin-4-yl)-phenyl]-1,3-dihydro-benzo[b][1,4]diazepin-2-one] — higher, 220 °C
- CCOc1cc2c(cc1C(F)(F)F)NC(=O)CC(c1cccc(-c3ccnc(C(F)(F)F)c3)c1)=N2 [Example 269, 7-Ethoxy-8-trifluoromethyl-4-[3-(2-trifluoromethyl-pyridin-4-yl)-phenyl]-1,3-dihydro-benzo[b][1,4]diazepin-2-one] — higher, 251 °C
- Cc1cc2c(cc1Cl)NC(=O)CC(c1cccc(-c3ccnc(C(C)C)c3)c1)=N2 [Example 270, 8-Chloro-4-[3-(2-isopropyl-pyridin-4-yl)-phenyl]-7-methyl-1,3-dihydro-benzo[b][1,4]diazepin-2-one] — lower, 196 °C
- Cc1cc2c(cc1C(F)(F)F)NC(=O)CC(c1cccc(-c3ccnc(C(C)C)c3)c1)=N2 [Example 271, 4-[3-(2-Isopropyl-pyridin-4-yl)-phenyl]-7-methyl-8-trifluoromethyl-1,3-dihydro benzo[b][1,4]diazepin-2-one] — higher, 205 °C
- CC(C)c1cc(-c2cccc(C3=Nc4ccc(C(F)(F)F)cc4NC(=O)C3)c2)ccn1 [Example 272, 4-[3-(2-Isopropyl-pyridin-4-yl)-phenyl]-8-trifluoromethyl-1,3-dihydro benzo[b][1,4]diazepin-2-one] — lower, 168 °C
- CC(C)c1cc(-c2cccc(C3=Nc4cc(Cl)c(C(F)(F)F)cc4NC(=O)C3)c2)ccn1 [Example 273, 7-Chloro-4-[3-(2-isopropyl-pyridin-4-yl)-phenyl]-8-trifluoromethyl-1,3-dihydro benzo[b][1,4]diazepin-2-one] — lower, 200 °C
- CC(C)c1cc(-c2cccc(C3=Nc4cc(Cl)c(Cl)cc4NC(=O)C3)c2)ccn1 [Example 274, 7,8-Dichloro-4-[3-(2-isopropyl-pyridin-4-yl)-phenyl]-1,3-dihydro-benzo[b][1,4]diazepin-2-one] — lower, 195 °C
- CC(C)c1cc(-c2cccc(C3=Nc4cc(OCC(F)(F)F)c(C(F)(F)F)cc4NC(=O)C3)c2)ccn1 [Example 275, 4-[3-(2-Isopropyl-pyridin-4-yl)-phenyl]-7-(2,2,2-trifluoro-ethoxy)-8-trifluoromethyl-1,3-dihydro-benzo[b][1,4]diazepin-2-one] — lower, 202 °C
- CCOc1cc2c(cc1C(F)(F)F)NC(=O)CC(c1cccc(-c3ccnc(C(C)C)c3)c1)=N2 [Example 276, 4-[3-(2-Isopropyl-pyridin-4-yl)-phenyl]-7-ethoxy-8-trifluoromethyl-1,3-dihydro-benzo[b][1,4]diazepin-2-one] — higher, 217 °C
- Cc1cc2c(cc1Cl)NC(=O)CC(c1cccc(-c3ccnc(CC(C)C)c3)c1)=N2 [Example 277, 8-Chloro-4-[3-(2-isobutyl-pyridin-4-yl)-phenyl]-7-methyl-1,3-dihydro-benzo[b][1,4]diazepin-2-one] — lower, 198 °C
- CC(C)Cc1cc(-c2cccc(C3=Nc4cc(Cl)c(C(F)(F)F)cc4NC(=O)C3)c2)ccn1 [Example 278, 7-Chloro-4-[3-(2-isobutyl-pyridin-4-yl)-phenyl]-8-trifluoromethyl-1,3-dihydro benzo[b][1,4]diazepin-2-one] — higher, 213 °C
- CC(C)Cc1cc(-c2cccc(C3=Nc4cc(Cl)c(Cl)cc4NC(=O)C3)c2)ccn1 [Example 279, 7,8-Dichloro-4-[3-(2-isobutyl-pyridin-4-yl)-phenyl]-1,3-dihydro-benzo[b][1,4]diazepin-2-one] — higher, 204 °C
- CC(C)Cc1cc(-c2cccc(C3=Nc4ccc(C(F)(F)F)cc4NC(=O)C3)c2)ccn1 [Example 281, 4-[3-(2-Isobutyl-pyridin-4-yl)-phenyl]-8-trifluoromethyl-1,3-dihydro benzo[b][1,4]diazepin-2-one] — lower, 181 °C
- Cc1cc2c(cc1Cl)NC(=O)CC(c1cccc(-c3ccnc(CO)c3)c1)=N2 [Example 282, 8-Chloro-4-[3-(2-hydroxymethyl-pyridin-4-yl)-phenyl]-7-methyl-1,3-dihydro-benzo[b][1,4]diazepin-2-one] — higher, 234 °C
- O=C1CC(c2cccc(-c3ccnc(CO)c3)c2)=Nc2cc(Cl)c(C(F)(F)F)cc2N1 [Example 284, 7-Chloro-4-[3-(2-hydroxymethyl-pyridin-4-yl)-phenyl]-8-trifluoromethyl-1,3-dihydro benzo[b][1,4]diazepin-2-one] — lower, 199 °C
- O=C1CC(c2cccc(-c3ccnc(CO)c3)c2)=Nc2cc(Cl)c(Cl)cc2N1 [Example 285, 7,8-Dichloro-4-[3-(2-hydroxymethyl-pyridin-4-yl)-phenyl]-1,3-dihydro-benzo[b][1,4]diazepin-2-one] — higher, 224 °C
- O=C1CC(c2cccc(-c3ccnc(CO)c3)c2)=Nc2cc(OCC(F)(F)F)c(C(F)(F)F)cc2N1 [Example 286, 4-[3-(2-Hydroxymethyl-pyridin-4-yl)-phenyl]-7-(2,2,2-trifluoro-ethoxy)-8-trifluoromethyl-1,3-dihydro-benzo[b][1,4]diazepin-2-one] — lower, 201 °C
- CCOc1cc2c(cc1C(F)(F)F)NC(=O)CC(c1cccc(-c3ccnc(CO)c3)c1)=N2 [Example 287, 4-[3-(2-Hydroxymethyl-pyridin-4-yl)-phenyl]-7-ethoxy-8-trifluoromethyl-1,3-dihydro-benzo[b][1,4]diazepin-2-one] — higher, 216 °C
- Cc1ncccc1-c1cccc(C2=Nc3ccc(-n4cccc4)cc3NC(=O)C2)c1 [Example 289, 4-[3-(2-Methyl-pyridin-3-yl)-phenyl]-8-pyrrol-1-yl-1,3-dihydro-benzo[b][1,4]diazepin-2-one] — higher, 215 to 216 °C
- Cc1cc2c(cc1Cl)NC(=O)CC(c1ccnc(-c3cccnc3)c1)=N2 [Example 291, 4-[2,3′]Bipyridinyl-4-yl-8-chloro-7-methyl-1,3-dihydro-benzo[b][1,4]diazepin-2-one] — higher, 229 to 231 °C
- Cc1cc2c(cc1C(F)(F)F)NC(=O)CC(c1ccnc(-c3ccncc3)c1)=N2 [Example 292, 4-[2,4′]Bipyridinyl-4-yl-7-methyl-8-trifluoromethyl-1,3-dihydro-benzo[b][1,4]diazepin-2-one] — higher, 224 to 226 °C
- Cc1cc2c(cc1Cl)NC(=O)CC(c1ccnc(-c3ccncc3)c1)=N2 [Example 293, 4-[2,4′]Bipyridinyl-4-yl-8-chloro-7-methyl-1,3-dihydro-benzo[b][1,4]diazepin-2-one] — higher, 233 to 235 °C
- Cc1cc(-c2cc(C3=Nc4cc(C)c(Cl)cc4NC(=O)C3)ccn2)ccn1 [Example 295, 8-Chloro-7-methyl-4-(2′-methyl-[2,4′]bipyridinyl-4-yl)-1,3-dihydro-benzo[b][1,4]diazepin-2-one] — higher, 225 to 227 °C
- Cc1cc2c(cc1Cl)NC(=O)CC(c1cccc(-c3ccncn3)c1)=N2 [Example 297, 8-Chloro-7-methyl-4-(3-pyrimidin-4-yl-phenyl)-1,3-dihydro-benzo[b][1,4]diazepin-2-one] — higher, 242 to 247 °C
- CN(C)c1cc2c(cc1C(F)(F)F)NC(=O)CC(c1cccc(-c3ccncn3)c1)=N2 [Example 298, 7-Dimethylamino-4-(3-pyrimidin-4-yl-phenyl)-8-trifluoromethyl-1,3-dihydro-benzo[b][1,4]diazepin-2-one] — higher, 209 to 210 °C
- O=C1CC(c2cccc(-c3ccncn3)c2)=Nc2ccc(Cl)cc2N1 [Example 299, 8-Chloro-4-(3-pyrimidin-4-yl-phenyl)-1,3-dihydro-benzo[b][1,4]diazepin-2-one] — higher, 220 to 233 °C
- O=C1CC(c2cccc(-c3ccncn3)c2)=Nc2cc(Cl)c(Cl)cc2N1 [Example 300, 7,8-Dichloro-4-(3-pyrimidin-4-yl-phenyl)-1,3-dihydro-benzo[b][1,4]diazepin-2-one] — higher, 234 to 237 °C
- Cc1nccc(-c2cccc(C3=Nc4cc(C)c(C(F)(F)F)cc4NC(=O)C3)c2)n1 [Example 301, 7-Methyl-4-[3-(2-methyl-pyrimidin-4-yl)-phenyl]-8-trifluoromethyl-1,3-dihydro-benzo[b][1,4]diazepin-2-one] — higher, 230 to 232 °C
- Cc1nccc(-c2cccc(C3=Nc4ccc(C(F)(F)F)cc4NC(=O)C3)c2)n1 [Example 304, 4-[3-(2-Methyl-pyrimidin-4-yl)-phenyl]-8-trifluoromethyl-1,3-dihydro-benzo[b][1,4]diazepin-2-one] — higher, 212 to 226 °C
- Cc1nccc(-c2cccc(C3=Nc4ccc(Cl)cc4NC(=O)C3)c2)n1 [Example 305, 8-Chloro-4-[3-(2-methyl-pyrimidin-4-yl)-phenyl]-1,3-dihydro-benzo[b][1,4]diazepin-2-one] — higher, 215 to 220 °C
- Cc1nccc(-c2cccc(C3=Nc4cc(Cl)c(Cl)cc4NC(=O)C3)c2)n1 [Example 306, 7,8-Dichloro-4-[3-(2-methyl-pyrimidin-4-yl)-phenyl]-1,3-dihydro-benzo[b][1,4]diazepin-2-one] — higher, 241 to 242 °C
- Cc1nccc(-c2cccc(C3=Nc4ccc(-n5cccc5)cc4NC(=O)C3)c2)n1 [Example 307, 4-[3-(2-Methyl-pyrimidin-4-yl)-phenyl]-8-pyrrol-1-yl-1,3-dihydro-benzo[b][1,4]diazepin-2-one] — higher, 209 to 212 °C
- Cc1cc(-c2cccc(C3=Nc4cc(C)c(C(F)(F)F)cc4NC(=O)C3)c2)ncn1 [Example 308, 7-Methyl-4-[3-(6-methyl-pyrimidin-4-yl)-phenyl]-8-trifluoromethyl-1,3-dihydro-benzo[b][1,4]diazepin-2-one] — higher, 227 to 230 °C
